Source: article PMC10347550, “Cyclic Ruthenium-Peptide Conjugates as Integrin-Targeting Phototherapeutic Prodrugs for the Treatment of Brain Tumors” (Journal of the American Chemical Society, 2023)
Like-named read-outs stand apart in the source and are kept apart here.

Legend:
[1] = Octanol-water partition coefficient (log P); format: physicochemical; settings: shake-flask, octanol-saturated water / water-saturated octanol, shaken 24 h in the dark, room temperature; Ru in water phase by ICP-MS; ± SD from 4 concentration points
Experimental: Each complex was first dissolved in octanol-saturated water (0.5 mM, 500 μL) and centrifuged (2000 rpm, 5 min) to isolate the undissolved solid. 450 μL of the supernatant was taken out as the stock solution; after that, 5, 10, 50, 100, and 150 μL of solution were added to the 15 mL tube, and more octanol-saturated water was added to adjust the final volume to 1 mL. 1 mL of water-saturated octanol was added further, and the tubes were mildly shaken (Gesellschaft für Labortechnik mbH, type3016) for 24 h under dark conditions. After that, the solutions were centrifuged for 5 min at 2000 rpm at room temperature, and 0.5 mL of the water phase (below phase) was moved to a 15 mL centrifuge tube by an Eppendorf pipette. Then, 0.1 mL of 65% HNO3 was added into the tube using an organic pipette gun, and each solution was shaken for 1 h. 9.9 mL of MilliQ water was added into each tube, making a total volume of 10 mL. To detect the Ru content of the stock solution, 10 μL of each stock solution was mixed with 0.490 mL of 65% HNO3, and the mixture was shaken for 1 h. Then, […] of MilliQ water was added to the tube, making a total volume of 10 mL. ICP-MS measurement was performed using a NexION 2000 from PerkinElmer. The ruthenium content in each well was obtained in ppb. The partition coefficients (log P) were calculated using the following eq 3 [drawing 3] 3
where [complex]total is the concentration of the complex in the control sample (where no water-saturated octanol was added) and [complex]water is the concentration of the complex in the aqueous layer.

[2] = system: ITGAV knockdown U87MG cells (U87MG-kd); assay: Cellular Ru uptake by ICP-MS, 2 h; format: cell-based, human; settings: 10 μM, dark, normoxia, n = 3
Experimental: (§1) The uptake studies in U87MG and U87MG-kd cell lines were conducted as follows: 2 × 10^5 cells were cultured in 6-well plates for 24 h in Opti-MEM (2 mL), after which cells were incubated with Δ-[1]Cl2 or Δ-[3]Cl2 (10 μM) for 2 h, washed with cold PBS twice, harvested, concentrated in 200 μL of PBS, and counted using trypan blue and a cell counter (Bio-Rad). Finally, cell pellets were collected in 1.5 mL Eppendorf tubes after removing additional PBS by centrifuging at 500g; 0.25 mL of 65% HNO3 was then added to each tube, and all tubes were kept at room temperature (RT) overnight. The cell lysates were transferred to 15 mL centrifuge tubes (Biologix) and filled with 4.75 mL of MilliQ H2O.
(§2) The ruthenium concentration was measured in each sample by ICP-MS (NexION 2000, PerkinElmer), providing the metal content in each well in ppb. Combining the cell numbers and Ru uptake, averaging over technical triplicates, the ruthenium uptake values were finally expressed in μg Ru/million cells.

[3] = system: wild-type U87MG cells (U87MG-wt); assay: Cellular Ru uptake by ICP-MS, 2 h; format: cell-based, human; settings: 10 μM, dark, normoxia, n = 3
Experimental: as §1, §2

[4] = system: A549 cells; assay: 2D cytotoxicity assay, 24 h DLI & no wash, SRB endpoint; format: cell-based, human; settings: A549 2D monolayer, not washed, n = 3
Experimental: (§3) For each complex, two identical plates were prepared, one of which was irradiated with light, while the other was used as a dark control. […] Finally, at t = 96 h, 100 μL of cold trichloroacetic acid (10% w/v) was added to each well to fix the cells, and all plates were then transferred to a 4 °C refrigerator for 48 h before performing an SRB cell quantification endpoint assay.[72] Trichloroacetic acid was first removed and each plate was gently washed with demi water 3–5 times. Then, each well was dried in the air, and 100 μL of 0.6% SRB solution (0.6% w/v in 1% v/v acetic acid/H2O solution) was added into each well where it was allowed to stain for 30 min. Then, the plates were washed 3–5 times using an acetic acid solution (1% v/v). Once the plate was washed it was allowed to dry overnight. Then, 200 μL of 10 mM Tris base buffer was added to each well and the plate was allowed to sit on an orbital shaker for 0.5–16 h. After mixing, the absorbance of each well was determined by an M1000 Tecan Reader, reading at 510 nm. All experiments were conducted in independent biological triplicate. The obtained data were analyzed with Graphpad Prism 5 using the dose–response two-parameter Hill slope equation (eq 1) to obtain the half-maximal effective concentrations EC50 (defined as the concentration of drug that kills 50% of cells, compared to the untreated control). [drawing 1] 1

[5] = system: PC-3 cells; assay: as above; format: cell-based, human; settings: PC-3 2D monolayer, not washed, SRB at 96 h, n = 3
Experimental: as §3

[6] = system: U87MG cells; assay: as above; format: cell-based, human; settings: U87MG 2D monolayer, not washed, SRB at 96 h, n = 3
Experimental: as §3

[7] = system: U87MG spheroids; assay: 3D tumor spheroid viability assay, CellTiter-Glo 3D; format: cell-based, human; settings: U87MG 3D spheroids, CellTiter-Glo 3D at 96 h, n = 3
Experimental: The spheroids were incubated further under normoxia. […] After 30 min of shaking on an IKA Vibrax shaker at 500 rpm at room temperature, the luminescence in each well was measured with a Tecan microplate reader. […] All experiments were conducted in three biologically independent replicates.

[8] = system: U87MG cells; assay: Apopxin/Nuclear Green DCS1 double-staining cell death mode study; format: cell-based, human; settings: 20 μM, 24 h incubation, 1 h after green light (13.1 J/cm^2), flow cytometry
Experimental: After 24 h of incubation, one plate labeled light was irradiated for 20 min using 520 nm green light (13.1 J/cm^2), and then both plates were allowed to incubate further for 1, 2, 6, or 24 h in a normoxia incubator. After incubation, the cells were trypsinized, collected, and washed with cold PBS twice. […] Cells after staining were detected by flow cytometry (CytoFLEX flow cytometer) immediately. Control groups with only assay buffer, only buffer and Apopxin Deep Red Indicator, only buffer and Nuclear Green DCS1, and all three were included to be used for gating during data analysis. Parameters APC (638 nm excitation, 660/10 nm emission) and FITC (488 nm excitation, 525/40 nm emission) were used considering their similar excitation/emission wavelength with two detectors Apopxin Deep Red Indicator, Ex/Em = 630/660 nm (apoptosis), and Nuclear Green DCS1, Ex/Em = 490/520 nm (necrosis).

[9] = system: U87MG cells; assay: Intracellular ROS generation, CellROX Deep Red, flow cytometry; settings: 15 µM, 24 h
Experimental: The generation of ROS (reactive oxygen species) in U87MG cells was measured using a ROS deep red fluorescence indicator (Abcam, ab186029). U87MG (1 × 10^5, 1 mL) were seeded into 12-well plates and incubated for 24 h in the dark under normoxia. The cells were then treated with 15 μM complexes with Opti-MEM, Λ-[1]Cl2, Δ-[1]Cl2, cisplatin, or Rose Bengal. There are two groups for each drug (dark + light). After 24 h of incubation under normoxia, the plate was washed with cold PBS once, and cells were trypsinized, harvested, and then resuspended in 150 μL of PBS. The cell suspension from the centrifuge tubes was transferred to 96-round-bottom well plates (Thermo Scientific, 268200), and the light group was irradiated for 20 min with 520 nm light (dose = 13.1 J/cm^2). After which, the Cellular ROS Deep Red dye (abcam, ab186029) was added with 1000× dilution, and cells were further stained for 1 h. Untreated cells were maintained as negative controls, whereas a 250 μM tBHP solution in Opti-MEM complete was administered as a positive control for ROS. The levels of intracellular ROS were then determined using the CytoFLEX flow cytometer. Forward versus side scatter (FSC vs SSC) gating was used to select the population of interest and avoid cell debris. A forward scatter height (FSC-H) vs forward scatter area (FSC-A) gating was used for doublet exclusion. Fluorescence measurements were acquired with the APC-A (638 nm excitation, 660/10 nm emission) channel given the known excitation/emission wavelengths of the ROS Deep Red dye (650/675 nm, respectively). All flow cytometry data were processed using FlowLogic 8.5 software.

[10] = target: T1, integrin αIIbβ3 (Homo sapiens, UniProt P05106+P08514); settings: literature values; read-out: Kd for the same integrin heterodimers (αIIbβ3); cited from earlier work
T1 construct: Purified human platelet glycoprotein integrin αIIbβ3; purchased Enzyme Research Laboratories GP2b3a; host or cells: human platelets (natural source)
Experimental: Since the ruthenium complexes were designed to target integrins, their interaction with the protein should be a key process for recognition, uptake, and toxicity. To check whether the ruthenium-coordinated peptide still retained the interaction binding affinity with the targeted integrin, the association constant (Ka) of both isomers of [1]Cl2 to integrin αIIbβ3 was measured using luminescence spectroscopy. In this assay, the emission intensity from aromatic residues (tryptophan, tyrosine, and phenylalanine) in integrin αIIbβ3 (λemi = 345 nm) was monitored upon the addition of different concen ...

[11] = 1% O2, dark, 24 h treatment, read-out: EC50,dark
[12] = 1% O2, 520 nm, 7.22 mW/cm^2, 13.1 J/cm^2, 30 min, read-out: EC50,light
[13] = 21% O2, dark, 24 h treatment, read-out: EC50,dark
[14] = 21% O2, 520 nm, 10.9 mW/cm^2, 13.1 J/cm^2, 20 min, read-out: EC50,light

With “[Ru(Ph2phen)2(κ^S,κ^N-Ac-MRADH-NH2)]Cl2 (sidechain bridge or staple) [Δ-[3]Cl2, Gly-Ala analogue of [1]Cl2]” the “log P (octanol-water partition coefficient)” value [1] was 0.02 ± 0.05, the “uptake amount compared to U87MG-wt cells” value [2] was “taken up in similar amounts” and the “cellular uptake compared to Δ-[1]Cl2” value [3] was “significantly lower”.
N.N.[Cl][Pt][Cl] [cisplatin, reference compound] showed an EC50 ([4]; 1% O2, dark, 24 h treatment, SRB at 96 h, read-out: EC50,dark) of 6.5 µM, an EC50 ([4]; 1% O2, 520 nm, 7.22 mW/cm^2, 13.1 J/cm^2, 30 min, SRB at 96 h, read-out: EC50,light) of 6.3 µM and an EC50 ([4]; 21% O2, dark, 24 h treatment, SRB at t = 96 h, read-out: EC50,dark) of 2.3 µM. For the same compound, the EC50 ([4]; 21% O2, 24 h treatment, 520 nm, 10.9 mW/cm^2, 13.1 J/cm^2, 20 min, SRB at 96 h, read-out: EC50,light) was 2.4 µM, the EC50 [5, 11] was 23.1 µM and the EC50 [5, 12] was 25.8 µM. For the same compound, the EC50 [5, 13] was 4.5 µM, the EC50 [5, 14] was 4.1 µM and the EC50 [6, 11] was 13 µM. The EC50 [6, 12] was 12.5 µM, the EC50 [6, 13] was 2.8 µM and the EC50 [6, 14] was 4 µM. The EC50 [7, 13] was 8.6 µM, the EC50 ([7]; 21% O2, green light after 24 h treatment, read-out: EC50,light) was 7.9 µM and the cell death mode [8] was “mainly died via apoptosis”. For the same compound, the “Ratio of L/D (light/dark ROS ratio)” value [9] was 0.81.
For fibrinogen, the Kd [10] is listed as 0.03 µM.
